Experimental data from publication PMC12040169 (PLOS Biology, 2025).

assay: in vitro; conditions: human, hela cells, % viability

| SMILES | viability at 28.5 h, 10 µM |
| --- | --- |
| CCOC(=O)N(C)c1c(CC)nc2ccc(C(=O)N(C)CCCN(C)C)cn12 [CBK146478] | 107% |
| O=C(Nc1nccs1)c1ncoc1-c1cccs1 [CBK283975] | 102% |
| O=C(Nc1cccc(C(F)(F)F)c1)N[C@H]1CO[C@H]2[C@@H]1OC[C@H]2O [CBK289476] | 102% |
| Cc1noc(C)c1CC(=O)NC(C)c1cc2cc(Cl)ccc2o1 (centres unmarked) [CBK281445] | 90.1% |
| CC(=O)N1CCC(C(=O)NCCc2cccc(C)c2)C1 (centres unmarked) [CBK281952] | 110% |
| Cc1nn(C)c(C)c1C(C)NC(=O)C1CC2C=CC1C21CC1 (centres unmarked) [CBK283076] | 81.5% |
| CC1CCCN(C(=O)CC(NC(N)=O)c2cccc(Br)c2)CC1 (centres unmarked) [CBK305804] | 91.7% |
| CN1CCN(CCOC(=O)N2CCSCC2)CC1 [CBK200288] | 94.7% |
| CC(Oc1ccc(/C=N/n2cnnc2)cc1)C(=O)O (centres unmarked) [CBK263927] | 82% |
| CCc1nn(CC(=O)N(C)C)c(=O)c2cc3sc(C)cc3n12 [CBK284102] | 110% |
| Cn1ccnc1C1(O)CC2CCC(C1)N2C(=O)NCc1ccccc1 (centres unmarked) [CBK284050] | 81.3% |
| COc1cc(Nc2nc(-c3c(OC)cccc3OC)cn3ccnc23)cc(OC)c1OC [CBK037395] | 95.5% |
| CSCCCNC(=O)c1ccc2nc[nH]c2c1 [CBK153314] | 116% |
| CCOC(=O)c1cnc2ccc(Cl)cc2c1NC [CBK307605] | 71.1% |
| c1coc(CNc2nc(-c3ccoc3)cn3ccnc23)c1 [CBK066610] | 98.8% |
| O=C(CC[C@@H]1CNC(=O)[C@@H]2C[C@H](NC(=O)c3cccc(F)c3)CN12)Nc1ccccc1 [CBK289008] | 83.9% |
| O=C(CSCc1ccc(Cl)cc1Cl)Nc1cccc(O)c1 [CBK131702] | 110% |
| O=C(COc1ccc(NS(=O)(=O)c2ccc3oc4cc([N+](=O)[O-])ccc4c3c2)cc1)N1CCOCC1 [CBK268252] | 100% |
| CCCC(=O)NCCn1nc(-c2ccccc2F)cc1CN(C)C [CBK282000] | 111% |
| Cc1ccc(CNC(=O)Cn2nnc(-c3ccc(CN4CC(C)OC(C)C4)cc3)n2)cc1 (centres unmarked) [CBK144554C] | 64.2% |
| O=[N+]([O-])c1ccc(CN2CCC(Oc3nccnc3OCc3ccc(Cl)c(Cl)c3)CC2)cc1 [CBK083107T] | 104% |
| O=C1CNC(=O)C2(C/C=C/C[C@H]3COCC[C@H]3N1)CCN(Cc1ccc(F)cn1)CC2 [CBK292160] | 110% |
| CN1CCN(C2c3ccccc3Oc3ccccc32)CC1 [CBK066891] | 93% |

| SMILES | viability at 28.5 h, 10 µM |
| --- | --- |
| CCOC(=O)CNS(=O)(=O)c1cccs1 [CBK044958] | 93.3% |
| COc1ccc(I)cc1S(=O)(=O)NCc1ccccn1 [CBK264019] | 91.3% |
| O=[N+]([O-])c1ccccc1S(=O)(=O)Nc1cc(C(F)(F)F)ccc1Cl [CBK015721] | 93.3% |
| COc1cc(/C=C2\C(=O)NN(c3ccccc3)C2=O)ccc1OCCOc1cc(C)ccc1C [CBK263947] | 80.5% |
| Cc1nn(C)cc1-c1cncn1Cc1cccc(OC(C)C)c1 [CBK281484] | 95.3% |
| COc1ccc(Br)cc1/C=N/NC(=O)CC1C(=O)NN=C1C (centres unmarked) [CBK263359] | 99.2% |
| O=C(NC(=S)Nc1cc(-c2nc3ccccc3[nH]2)ccc1Cl)c1ccccc1[N+](=O)[O-] [CBK268649] | 93.7% |
| CC1(c2ccc(Br)cc2)NC(=O)CS1 (centres unmarked) [CBK018962] | 92.2% |
| Cc1nn(CC(=O)N(C)CCCc2nccn2C)c(=O)c2ccccc12 [CBK307087] | 92.2% |
| Cc1ccc(C(=O)N/C(=C\c2ccccc2F)c2n[nH]c(=S)[nH]2)cc1 [CBK263136] | 87.4% |
| Cc1nc2cc(C(=O)N3CCCCC3CN3CCOCC3)ccc2[nH]1 (centres unmarked) [CBK304219] | 109% |
| O=C(CSc1nc(Nc2ccccc2)nc(N2CCOCC2)n1)N1CCN(c2ccccc2)CC1 [CBK269078] | 98.5% |
| CCOC(=O)c1[nH]c2ccccc2c1NS(=O)(=O)Cc1ccccc1[N+](=O)[O-] [CBK047426] | 94.7% |
| CCN(Cc1ccccc1)C(=O)NCCCSC [CBK155214] | 94.3% |
| O=C(O)/C=C\C(=O)Nc1ccccc1C(=O)N1CCOCC1 [CBK287067] | 100% |
| O=C(Nc1ccccc1C(=O)N1CCN(Cc2ccccc2)CC1)c1ccccn1 [CBK263512] | 106% |
| CCc1ccc(NC(=O)CNc2cc(C)ccc2OC)cc1 [CBK297553] | 107% |
| COc1ccc(CNC(=O)C2CCCN(c3cnc4ccccc4n3)C2)cc1 (centres unmarked) [CBK287772] | 112% |
| COc1ccc(/N=c2/cc(C)[nH]c3ncnn23)cc1 [CBK287893] | 91.1% |
| Cc1cnccc1-c1cn(C)nc1-c1ccc(CNC(=O)c2cccc(N(C)C)c2)cc1 [CBK285633] | 86.5% |
| CCNc1nc(Sc2ccc(Cl)cc2)cc(C(F)(F)F)n1 [CBK003349] | 79.4% |
| CCOc1cc(OCC)nc(Oc2ccc(C(=O)OC)cc2)n1 [CBK107733] | 87.2% |
| Cc1[nH]c(=O)[nH]c(=S)c1C(=O)Nc1ccc(Cl)cc1C#N [CBK115502] | 91% |

| SMILES | viability at 28.5 h, 10 µM |
| --- | --- |
| O=C1CCCN1c1ccc(S(=O)(=O)NCC2CC3CCC2C3)cc1 (centres unmarked) [CBK282841] | 106% |
| O=C(O)c1ccc(N2CCN(CCO)CC2)c([N+](=O)[O-])c1 [CBK264911C] | 100% |
| O=C(NNC(=S)NCCc1ccccc1)c1ccc(Br)o1 [CBK266818] | 96.3% |
| Cc1ccc(C)c(NC(=O)N[C@@H](CC(C)C)C(=O)O)c1 [CBK286678] | 89% |
| CCN(CC)CCNC(=O)c1cc(=O)c2ccccc2o1 [CBK010691] | 114% |
| CC1CN(C(=S)Nc2ccc3ccccc3c2)CC(C)O1 (centres unmarked) [CBK004993] | 102% |
| O=c1[nH]c(=O)c2cc(S(=O)(=O)Nc3ccc(Oc4cccnc4)cc3)ccc2[nH]1 [CBK286386] | 99.2% |
| CC1(C)CN(Cc2cccc(-c3ccccn3)c2)CCS1(=O)=O [CBK304284] | 99.8% |
| COC(=O)c1ccccc1NC(=O)CCSc1ccc(C)cc1 [CBK265958] | 91.9% |
| Cc1c(F)cccc1CNCC1CCN(C(=O)OC(C)(C)C)CC1 [CBK056717] | 85.7% |
| CC(C)C(=O)Nc1ccc2c(-c3ccc4c(c3)CCO4)ccnc2n1 [CBK073672] | 87.7% |
| COc1ccc(/C=N/c2cc(S(=O)(=O)c3ccc(O)c(/N=C/c4ccc(OC)c(O)c4)c3)ccc2O)cc1O [CBK261223] | 92.3% |
| O=C(c1ccc(S(=O)(=O)c2ccc(F)cc2)c([N+](=O)[O-])c1)N1CCCCCC1 [CBK294453] | 78.3% |
| CC(C(=O)Nc1ccc(S(N)(=O)=O)cc1)N1Cc2ccccc2C1=O (centres unmarked) [CBK307607] | 82.8% |
| O=C(CN1CCN(c2ccccc2)CC1)Nc1ccc([N+](=O)[O-])cc1C(=O)c1ccccc1 [CBK265799] | 89.6% |
| COc1cccc(Nc2cc(-c3cccc(N)c3)ncn2)c1OC [CBK090726] | 104% |
| CCN(CC(=O)N1CCN(Cc2ccc3c(c2)OCO3)CC1)S(=O)(=O)c1ccccc1 [CBK269436] | 92.3% |
| CN(C)CCn1c2c(c3ccccc31)CCCn1nnnc1-2 [CBK267713C] | 94.8% |
| O=C(Nc1ccc2cccc(O)c2n1)c1cc[nH]c1 [CBK122743] | 94.9% |
| COc1cccc(NC(=O)Cn2cc(OC)c(=O)cc2CN2CCOCC2)c1 [CBK294430] | 87.2% |
| Cc1nc(CN2CCC3(CC2)CN(S(C)(=O)=O)c2ccccc23)cs1 [CBK126687] | 96.3% |
| COc1ncc(-c2ccc(N3CCN(c4ccncc4)CC3)nc2)c(OC)n1 [CBK036848] | 99.1% |
| C=CCn1ncc(CN2CCC3(O)CCCCC3C2)c1C (centres unmarked) [CBK283029] | 100% |

| SMILES | viability at 28.5 h, 10 µM |
| --- | --- |
| COc1cc(CN2CCCC3(CCN(C(=O)Cc4c[nH]c5ccccc45)C3)C2)cc(OC)c1OC (centres unmarked) [CBK132027] | 99.5% |
| COc1cccc(CNn2cnnc2S)c1OCc1ccccc1 [CBK265781] | 96.3% |
| CNC(=O)C1(Cc2cccc(-c3cccs3)c2)CCN(C(=O)COc2ccccc2)CC1 [CBK285732] | 95.5% |
| Cc1nc(CN2[C@H]3CCCCC(=O)N[C@@]3(C)C[C@H]2c2cccc(C(F)(F)F)c2)cs1 [CBK285701] | 91.1% |
| O=C(Cn1c(NCCCO)nc2ccccc21)c1ccc(Cl)c(Cl)c1 [CBK262905B] | 94.1% |
| Cc1ccc(S(=O)(=O)NC2c3cccc4cccc(c34)C2Sc2nnnn2-c2ccccc2)cc1 (centres unmarked) [CBK265884] | 93.1% |
| COc1ccc2c(c1)CCCN2C(=O)CCn1ccc(C)n1 [CBK282217] | 104% |
| Cc1csc(S(=O)(=O)Cc2nnc(C)n2C2CC2)n1 [CBK305494] | 98.4% |
| O=C(C1=C(O)C(=O)N(c2ncccn2)C1c1cccc([N+](=O)[O-])c1)c1ccc(F)cc1 (centres unmarked) [CBK264932] | 85.2% |
| CC(NC(=O)c1ncoc1-c1ccccc1Cl)c1ccccn1 (centres unmarked) [CBK282409] | 94.8% |
| COC1C(O)C(CO)OC1n1cc(F)c(=S)[nH]c1=O (centres unmarked) [CBK201168] | 96% |
| O=C(Cn1c(-c2cccs2)cc2cccnc21)NC1CC1 [CBK282552] | 101% |
| CC(=O)c1ccc(NC(=O)CC2SC(=N)NC2=O)cc1 (centres unmarked) [CBK265625] | 83.9% |
| O=C(CSc1nnc(-c2ccncc2)n1-c1ccccc1)N1CCN(Cc2ccccc2)CC1 [CBK267240] | 105% |
| O=C(O)c1cccn1-c1cc(Cl)cc(Cl)c1 [CBK286932] | 98.8% |
| CN(C)S(=O)(=O)c1ccc(C(=O)Nc2ccc(Br)cc2C(=O)c2ccccc2)cc1 [CBK263243] | 81.1% |
| N#Cc1c[nH]nc1NS(=O)(=O)c1ccc(F)cc1 [CBK051018] | 106% |
| CSc1ccccc1-n1nnnc1SCc1ccccc1 [CBK099033] | 83% |
| O=C1NCCc2c1[nH]c1ccc(Cl)cc21 [CBK015755] | 38.9% |
| O=C(NCc1ccncc1)c1cc(-c2ccc(Cl)cc2)on1 [CBK116559] | 85.7% |
